Literature values, collected in patent publication US20040024065A1, “Novel metabolic targets and markers” (priority 2002, published 2004).

Columns and labels:
[1] = system: rat hepatocytes; details: rat hepatocytes incubated with inhibitor
[2] = system: PEMT; details: alcohol consumption, before the development of cirrhosis

Row | Structure (SMILES) | PC synthesis via methylation of PE derived from ethanolamine, inhibited [1] | amount of PE in the cells [1] | amount of PE secreted into the medium, increase [1] [%] | secretion of the apoproteins into VLDL, LDL, HDL fractions or fraction with density greater than 1.18 g/ml [1] | activity of PEMT [2]
1 | Nc1nccc2c1ncn2[C@@H]1O[C@H](CO)[C@@H](O)[C@H]1O [3-deazaadenosine] | more than 95% | doubled | 70 | not affected | 
2 | CCO [alcohol] |  |  |  |  | depresses
